The values below come from patent US20190040004A1, “NEW COMPOUNDS FOR THE TREATMENT AND/OR PREVENTION OF PARASITIC DISEASES AND METHOD OF PRODUCTION OF THEREOF” (INSTITUT DE RECHERCHE POUR LE DEVELOPPEMENT (I.R.D.), priority 2013, published 2019).

Entries after “also recorded” stand apart in the source; their conditions may differ. Read-outs that look alike come from different tables or passages of the source.

In data set [1] the target is recombinant HDAC3 (Homo sapiens, UniProt O15379). Kind of data set: Recombinant HDAC3 inhibition. The class given is biochemical.
The target in data set [2] is T1, recombinant HDAC 8 (Homo sapiens, UniProt Q9BY41).
T1 sequence (Q9BY41 1-377): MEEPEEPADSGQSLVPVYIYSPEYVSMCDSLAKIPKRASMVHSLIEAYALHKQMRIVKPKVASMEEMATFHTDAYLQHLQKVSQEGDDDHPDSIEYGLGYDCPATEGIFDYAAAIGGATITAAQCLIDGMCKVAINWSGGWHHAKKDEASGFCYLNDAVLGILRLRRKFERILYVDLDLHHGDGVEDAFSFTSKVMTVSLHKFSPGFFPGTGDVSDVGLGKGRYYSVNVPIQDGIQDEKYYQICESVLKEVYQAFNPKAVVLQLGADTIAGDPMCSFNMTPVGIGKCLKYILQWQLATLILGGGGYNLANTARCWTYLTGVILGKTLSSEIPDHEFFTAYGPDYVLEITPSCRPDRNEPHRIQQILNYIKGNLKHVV
As to the kind of experiment: Recombinant HDAC8 inhibition. The class given is biochemical.

Data set [3] concerns HFF cells. Kind of data set: MTT cytotoxicity on HFF host cells. The class given is cell-based. Here is the method:
(§1) Antiparasitic activity of a compound is represented by ICo50, which is calculated with Prism software (Prism4 for MacOSX Version 5.0b, December 2008). The cytoxicity of a compound against the host cells of L. infantum and T. gondii, such as THP-1 or HFF cells, was determined with a MTT assay, according to previously described protocol (Sereno et al., Antimicrob Agents Chemother. 2001, 45(4):1168-73). THP-1 is derived from the peripheral blood ofa human with acute monocytic leukemia.

In data set [4] the test system is type II Prugniaud parasites. Kind of data set: Type II Prugniaud Toxoplasma proliferation in HFF. The class given is cell-based, Toxoplasma gondii. As to conditions: 0.025 to 0.8 uM, 24 h. How it is done: To compare the activity of compounds according to the invention to that of prior art on toxoplasma proliferation, human foreskin fibroblasts (HFF) were plated in 96-wells plate (10 000 cells per well). Twenty-four hours later, cells were infected with 40 000 parasites, either RH-YFP type I or type II Prugniaud parasites or tachyzoites (kindly provided by B. Striepen, Athens) for one hour. Cells were then washed and drugs (compound D16 of formula
(FIG. 4 and FIG. 5) or compound according to the invention (363) (FIG. 6) added at various concentrations ranging from 0.025 to 0.8 uM. After 24 h, cells were washed and fixed (PBS-formaldehyde 2%) and nucleus stained with Hoechst 33258 (2 μg/ml). The number of infected cells ie. cells harbouring a parasitophorous vacuole and the number of parasites per vacuole was determined using an Olympus ScanR microscope (Olympus).

The subject of data set [5] is Babesia. Kind of data set: Babesia proliferation. The format is cell-based.
For data set [6], the system named is THP-1 cells. As to the kind of experiment: MTT cytotoxicity on THP-1 host cells. The format is cell-based. Here is the method:
as §1

Data set [7] relates to deacetylase activity in total protein extracts of T. gondii. As to the kind of experiment: Deacetylase activity in total protein extracts of T. gondii. As to conditions: 125 nM. The format is biochemical.
Data set [8] deals with recombinant HDAC1 (Homo sapiens, UniProt Q13547). Kind of data set: Recombinant HDAC1 inhibition. The class given is biochemical. Here is the method:
FIG. 2 illustrates the capacity of the different compounds of 600 nM to inhibit HDAC activity from HELA nuclear extract and from HDAC-recombinant proteins (HDAC 1, HDAC 3, HDAC 6, HDAC 8).
HDAC inhibitory activity was determined by a fluorimetric HDAC assay kit (Active-motif, Belgium), according to manufacturer's instructions. Briefly, 30 μL of HeLa nuclear extract were mixed with 5 μL of 10× compound to be tested and 10 μL of assay buffer. Fluorogenic substrate (10 μL) was added, reaction was allowed to proceed for 30 min at room temperature, then stopped by the addition of a developer containing Tichostatin A. Fluorescence was monitored after 30 min at excitation and emission wavelengths of 360 and 460 nm, respectively. […].

Data set [9] addresses T2, recombinant HDAC6 (Homo sapiens, UniProt Q9UBN7).
T2 sequence (Q9UBN7 1-1215): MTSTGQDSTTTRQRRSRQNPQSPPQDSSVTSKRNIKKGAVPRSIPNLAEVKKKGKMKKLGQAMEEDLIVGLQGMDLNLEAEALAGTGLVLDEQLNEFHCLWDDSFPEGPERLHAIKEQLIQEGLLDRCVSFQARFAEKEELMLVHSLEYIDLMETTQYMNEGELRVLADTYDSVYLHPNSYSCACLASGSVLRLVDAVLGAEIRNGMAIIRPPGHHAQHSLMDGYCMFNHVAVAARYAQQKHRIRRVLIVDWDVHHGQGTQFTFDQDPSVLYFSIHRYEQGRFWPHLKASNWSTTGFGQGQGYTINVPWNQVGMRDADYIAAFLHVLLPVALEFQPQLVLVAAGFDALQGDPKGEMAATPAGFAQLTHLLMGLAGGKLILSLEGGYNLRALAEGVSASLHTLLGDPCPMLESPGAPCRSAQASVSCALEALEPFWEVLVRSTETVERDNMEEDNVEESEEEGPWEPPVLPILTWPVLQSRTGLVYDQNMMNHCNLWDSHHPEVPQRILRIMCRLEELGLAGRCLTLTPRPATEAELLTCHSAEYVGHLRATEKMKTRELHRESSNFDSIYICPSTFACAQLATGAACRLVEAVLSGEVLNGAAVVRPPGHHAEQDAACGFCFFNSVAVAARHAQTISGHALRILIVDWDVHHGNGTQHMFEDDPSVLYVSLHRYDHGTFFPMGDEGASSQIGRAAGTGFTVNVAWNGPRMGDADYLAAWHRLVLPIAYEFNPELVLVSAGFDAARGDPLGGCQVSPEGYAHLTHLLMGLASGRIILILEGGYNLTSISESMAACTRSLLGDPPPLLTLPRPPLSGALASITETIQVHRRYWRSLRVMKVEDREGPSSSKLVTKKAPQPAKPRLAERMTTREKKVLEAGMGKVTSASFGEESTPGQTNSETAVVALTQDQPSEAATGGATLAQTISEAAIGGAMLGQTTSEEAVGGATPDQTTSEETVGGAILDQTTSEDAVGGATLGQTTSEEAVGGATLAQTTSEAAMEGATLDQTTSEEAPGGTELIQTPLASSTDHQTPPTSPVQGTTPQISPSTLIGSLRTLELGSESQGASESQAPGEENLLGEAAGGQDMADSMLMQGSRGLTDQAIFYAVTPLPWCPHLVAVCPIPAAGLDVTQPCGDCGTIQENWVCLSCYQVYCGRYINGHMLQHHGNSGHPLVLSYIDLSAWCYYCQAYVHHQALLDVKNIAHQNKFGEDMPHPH
As to the kind of experiment: Recombinant HDAC6 inhibition. The format is biochemical.

Data set [10] concerns T3, HDAC activity from HELA nuclear extract.
T3 construct: other: 600 nM; HELA nuclear extract and HDAC-recombinant proteins
As to the kind of experiment: Fluorimetric HDAC assay, HeLa nuclear extract. The class given is biochemical, human. The settings on record: 600 nM; HELA nuclear extract and HDAC-recombinant proteins. How it is done:
(§2) HDAC inhibitory activity was determined by a fluorimetric HDAC assay kit (Active-motif, Belgium), according to manufacturer's instructions. […] Fluorogenic substrate (10 μL) was added, reaction was allowed to proceed for 30 min at room temperature, then stopped by the addition of a developer containing Tichostatin A.

Data set [11] relates to HDAC activity from HELA nuclear extract. Kind of data set: Fluorimetric HDAC assay, HeLa nuclear extract. The format is biochemical, human. As to conditions: read-out: IC50 (better HDAC inhibitor among 9 tested compounds). How it is done:
as §2

The test system of data set [12] is T4, HDAC activity from HELA nuclear extract.
T4 construct: HELA Nuclear extracts IC50; other: HeLa nuclear extract, fluorimetric HDAC kit; […]
As to the kind of experiment: Fluorimetric HDAC assay, HeLa nuclear extract. The format is biochemical, human. As to conditions: HeLa nuclear extract, fluorimetric HDAC kit; read-out: HELA Nuclear extracts IC50. How it is done: as §2

recombinant HDAC3, sequence (O15379 whole entry): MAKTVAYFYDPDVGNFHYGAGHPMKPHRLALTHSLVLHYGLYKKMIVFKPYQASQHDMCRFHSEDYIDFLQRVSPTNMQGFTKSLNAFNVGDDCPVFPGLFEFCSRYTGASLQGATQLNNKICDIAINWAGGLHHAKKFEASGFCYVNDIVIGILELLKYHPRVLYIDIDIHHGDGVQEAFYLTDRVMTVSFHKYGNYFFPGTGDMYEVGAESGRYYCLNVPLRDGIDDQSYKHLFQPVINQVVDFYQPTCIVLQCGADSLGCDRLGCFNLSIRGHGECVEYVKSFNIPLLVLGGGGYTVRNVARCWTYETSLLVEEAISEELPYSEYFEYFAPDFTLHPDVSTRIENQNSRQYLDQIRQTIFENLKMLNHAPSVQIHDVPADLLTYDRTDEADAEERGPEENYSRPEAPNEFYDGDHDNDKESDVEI
recombinant HDAC3, sequence (Q9Y618 395-489 partner limits assumed): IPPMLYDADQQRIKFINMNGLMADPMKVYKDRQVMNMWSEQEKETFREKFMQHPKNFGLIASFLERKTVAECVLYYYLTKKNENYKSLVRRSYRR
recombinant HDAC1, sequence (Q13547 whole entry): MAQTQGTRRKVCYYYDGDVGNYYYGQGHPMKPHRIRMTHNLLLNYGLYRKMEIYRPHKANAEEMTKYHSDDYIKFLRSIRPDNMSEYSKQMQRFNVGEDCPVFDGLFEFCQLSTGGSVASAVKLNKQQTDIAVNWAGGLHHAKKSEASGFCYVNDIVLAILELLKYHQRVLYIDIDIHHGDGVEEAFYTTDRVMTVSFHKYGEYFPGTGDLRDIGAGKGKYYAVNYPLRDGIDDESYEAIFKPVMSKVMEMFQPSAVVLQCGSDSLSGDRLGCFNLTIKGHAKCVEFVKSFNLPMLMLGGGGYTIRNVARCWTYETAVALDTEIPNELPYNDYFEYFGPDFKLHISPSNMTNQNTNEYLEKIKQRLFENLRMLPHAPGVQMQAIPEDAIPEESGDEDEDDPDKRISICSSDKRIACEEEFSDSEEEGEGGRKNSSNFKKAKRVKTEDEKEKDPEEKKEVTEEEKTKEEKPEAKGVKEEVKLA

By IC50 is commonly meant the midpoint of a concentration-inhibition curve. Turning to `COc1cccc(CC(=O)Nc2ccc(C(=O)NO)cc2)c1` [Compound 363], the IC50 in data set [1] is 160 nM; in data set [2], 863 nM; in data set [5] it was approximately 1000 nM; in [8] it was 257 nM; in data set [9] it was 45 nM; in data set [11] it was 3.6 µM. For the same compound, the IC50 in data set [12] amounted to 85 nM. Moreover, the “IS Selectivity index LD50 (HFF)/IC50 T. gondii” value in [3] (HFF) amounted to 300. Further, the “HFF LD50” value in data set [3] (human) amounted to 105 ± 10.5 µM. For the same compound, in [4], the “inhibitory activity on type II Prugniaud parasites proliferation, in words” value is “potent inhibitory effect; also recorded: potent inhibitory activity”. Moreover, in data set [6] (THP-1), the “IS Selectivity index LD50 (THP-1)/IC50 T. gondii” value is reported as 10.3. The “THP-1 LD50” value in data set [6] (human) turned out to be 3.6 ± 0.5 µM. For the same compound, the “inhibitory effect on deacetylase activity of T. gondii extracts, in words” value in [7] was “strong inhibitory effect”. Moreover, the “inhibition of T. gondii deacetylase activity” value in [7] (total protein extracts) is given as 44%. Moreover, in data set [10], the “inhibition of human HDAC activity (FIG. 2), in words” value is “most potent inhibitor”.
